From ChEMBL document CHEMBL5236669, “Identification of pyrimidinyl piperazines as non-iminosugar glucocerebrosidase (GCase) pharmacological chaperones” (Bioorg Med Chem Lett, 2023) come the findings set out here.

The structures appear in SMILES notation. In brackets after ≈: the same amount, converted by molar mass.

The target in data set [1] is Lysosomal acid glucosylceramidase (Homo sapiens, UniProt P04062, N409S). Description: Chaperone activity at GCase N370S GBA mutant in patient derived fibroblast cell using 4-methylumbelliferyl-beta-D-glucopyranoside as substrate assessed as substrate cleavage by measuring concentration required for maximal response incubated for 5 days by fluorescence based assay.
Sequence of Lysosomal acid glucosylceramidase (P04062 40-536 N409S limits assumed): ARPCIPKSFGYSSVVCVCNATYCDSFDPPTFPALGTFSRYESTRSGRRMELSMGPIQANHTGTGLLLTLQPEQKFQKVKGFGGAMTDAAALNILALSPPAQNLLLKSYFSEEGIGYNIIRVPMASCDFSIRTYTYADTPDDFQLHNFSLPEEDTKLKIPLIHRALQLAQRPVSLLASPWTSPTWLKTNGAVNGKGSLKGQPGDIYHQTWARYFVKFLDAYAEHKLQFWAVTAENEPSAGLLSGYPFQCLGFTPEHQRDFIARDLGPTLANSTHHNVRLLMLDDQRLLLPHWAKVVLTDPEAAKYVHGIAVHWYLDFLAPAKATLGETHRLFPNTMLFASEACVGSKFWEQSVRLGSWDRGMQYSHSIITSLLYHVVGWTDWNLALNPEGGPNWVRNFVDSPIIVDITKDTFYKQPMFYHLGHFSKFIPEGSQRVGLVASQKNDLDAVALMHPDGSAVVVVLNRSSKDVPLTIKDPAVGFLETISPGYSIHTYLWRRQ
Data set [2] can be described thus: Solubility of the compound in PBS. The format is physicochemical.
Data set [3] is described as follows: Metabolic stability in human liver microsomes assessed as intrinsic clearance. In kind it is ADME, Microsome. The note with it: read-out: CLH. A general note: Liver microsomes are a subcellular fraction often used to study metabolism.
The subject of another data set is LLC-PK1. Description: Corrected flux ratio of permeability in pig LLC-PK1 cells overexpressing MDR1 to pig LLC-PK1 cells. The format is ADME, cell-based, Sus scrofa.

Usually EC50 stands for the concentration that produces a half-maximal response. For orientation: solubility means how much of the substance goes into solution per volume. High values mean a readily soluble substance, low ones a poorly soluble substance. Turning to `Cc1cc(N2CCN(C(=O)c3cc(-c4ccccc4)nc4c3cnn4C(C)C)CC2)nc(C(C)C)n1`, the EC50 in data set [1] worked out at 90 nM. The compound also displayed a solubility in data set [2] of 3 µM (≈ 1.45 µg/mL). Also, the CLint scaled in data set [3] is 0.341 mL/min/kg. The Ratio in the data set on LLC-PK1 came to 1.26.

Turning to `Cc1cc(N2CCN(C(=O)c3ccccc3C)CC2)nc(C(C)C)n1`, the EC50 in data set [1] is 150 nM.

On to `Cc1cc(N2CCN(C(=O)c3ccccc3C)CC2)nc(N2CCCCCC2)n1`, for which, in data set [1], the EC50 was 29 nM.

For `Cc1cc(N2CCN(C(=O)c3ccncc3)CC2)nc(N2CCCC2)n1`, the half-maximal effective concentration (EC50) in data set [1] amounted to 6800 nM.

`Cc1ccccc1C(=O)N1CCN(c2nc(N3CCCC3)nc3c2COC3)CC1`: in data set [1], the EC50 was 540 nM.

For `Cc1cc(N2CCN(C(=O)c3cnccn3)CC2)nc(N2CCCC2)n1`, the EC50 in data set [1] was determined as 5300 nM.

On to `Cc1cc(N2CCN(C(=O)c3ccc(C(C)(C)C)cc3)CC2)nc(N2CCCC2)n1`, for which the solubility in data set [2] is 68 µM (≈ 27.7 µg/mL). Also, in data set [3], the CLint scaled came to 0.172 mL/min/kg.

`Cc1ccccc1C(=O)N1CCN(c2ccnc(N3CCCC3)n2)CC1`: the EC50 in data set [1] was 680 nM.

Consider `Cc1cc(N2CCN(C(=O)c3ccccc3C)CC2)nc(N2CCC2)n1`, for which the EC50 in data set [1] amounted to 440 nM.

On to `Cc1cc(N2CCN(C(=O)c3ccccc3C)CC2)nc(N2CCCC2)n1`, for which the EC50 in data set [1] came to 75 nM. Besides, the solubility in data set [2] worked out at 94 µM (≈ 34.4 µg/mL). In addition, in data set [3], the CLint scaled is 0.104 mL/min/kg. In the data set on LLC-PK1, the Ratio amounted to 1.38.

Consider `CC(=O)N1CCN(c2cc(C)nc(N3CCCC3)n2)CC1`, for which the EC50 in data set [1] stood at 7100 nM.

Turning to `Cc1cc(N2CCN(C(=O)c3ccccc3C)CC2)nc(N(C)C)n1`, in data set [1], the EC50 came out at 630 nM.

Regarding `Cc1cc(N2CCN(C(=O)c3ccc(Cl)cc3)CC2)nc(N2CCCC2)n1`, in data set [1], the EC50 was determined as 40 nM.

Consider `Cc1cc(N2CCN(C(=O)Cc3ccccc3)CC2)nc(N2CCCC2)n1`, for which the EC50 in data set [1] was 460 nM.

In the case of `Cc1cc(N2CCN(C(=O)c3ccccc3C)CC2)nc(N2CCOCC2)n1`, the EC50 in data set [1] is 5200 nM.

As for `Cc1cc(N2CCN(C(=O)c3ccccc3Cl)CC2)nc(N2CCCC2)n1`, in data set [1], the EC50 came out at 63 nM.

Consider `Cc1ccc(C(=O)N2CCN(c3cc(C)nc(N4CCCC4)n3)CC2)cc1`, for which the concentration for a half-maximal effect (EC50) in data set [1] came out at 70 nM.

As for `CC(C)(C)c1ccc(C(=O)N2CCN(c3nc(N4CCCC4)nc4c3CCC4)CC2)cc1`, the solubility in data set [2] came to 2 µM (≈ 0.867 µg/mL).

As to `Cc1cc(N2CCN(C(=O)c3ccccc3C)CC2)nc(N2CCCCC2)n1`, the EC50 in data set [1] was 170 nM.

As to `Cc1cc(N2CC3(CN(C(=O)c4ccccc4C)C3)C2)nc(N2CCCC2)n1`, the EC50 in data set [1] was determined as 2100 nM.

Turning to `Cc1cc(N2CCN(C(=O)c3ccccc3C)CC2)nc(N2CCC(F)(F)C2)n1`, in data set [1], the EC50 amounted to 1400 nM.

As to `Cc1ccccc1C(=O)N1CCN(c2nc(N3CCCC3)nc3ccccc23)CC1`, the EC50 in data set [1] is 79 nM. This compound displayed a solubility in data set [2] of 85 µM (≈ 34.1 µg/mL). Besides, the CLint scaled in data set [3] amounted to 0.789 mL/min/kg. For the same compound, the Ratio with LLC-PK1 is given as 2.19.

Consider `CC(C)(C)c1ccc(C(=O)N2CCN(c3nc(N4CCCC4)nc4c3COC4)CC2)cc1`, for which the EC50 in data set [1] is 150 nM.

In the case of `Cc1cc(N2CC3CN(C(=O)c4ccccc4C)CC3C2)nc(N2CCCC2)n1` (configuration not stated), the EC50 in data set [1] came out at 660 nM.

In the case of `Cc1ccccc1C(=O)N1CCN(c2nc(N3CCCC3)nc3c2CCC3)CC1`, the EC50 in data set [1] was 30 nM.

On to `Cc1ccccc1C(=O)N1CCN(c2nc(N3CCCC3)nc3c2COCC3)CC1`, for which the EC50 in data set [1] was 410 nM.

Consider `Cc1ccccc1C(=O)N1CCN(c2cc(C(F)(F)F)nc(N3CCCC3)n2)CC1`, for which the EC50 in data set [1] was over 25000 nM.

As for `Cc1cc(N2CCN(C(=O)c3ccccc3F)CC2)nc(N2CCCC2)n1`, the EC50 in data set [1] is 170 nM.

Turning to `Cc1cc(N2CCN(C(=O)c3ccccc3C(F)(F)F)CC2)nc(N2CCCC2)n1`, the EC50 in data set [1] turned out to be 100 nM.

In the case of `Cc1cc(N2CCN(C(=O)C3CCCCC3)CC2)nc(N2CCCC2)n1`, in data set [1], the EC50 came out at 360 nM.

Consider `Cc1cccc(C(=O)N2CCN(c3cc(C)nc(N4CCCC4)n3)CC2)c1`, for which, in data set [1], the EC50 amounted to 130 nM.

Regarding `Cc1ccccc1C(=O)N1CCN(c2nc(N3CCCC3)ncc2C)CC1`, the EC50 in data set [1] was determined as 120 nM.

In the case of `Cc1ccccc1C(=O)N1CCN(c2cc(CO)nc(N3CCCC3)n2)CC1`, the EC50 in data set [1] is 220 nM.

Take `Cc1cc(N2CCCN(C(=O)c3ccccc3C)CC2)nc(N2CCCC2)n1`: the EC50 in data set [1] was 1800 nM.

For `Cc1ccccc1C(=O)N1CCN(c2nc(N3CCCC3)nc(C)c2C)CC1`, in data set [1], the EC50 is 250 nM.

Turning to `Cc1cc(N2CCN(C(=O)c3ccc(-c4ccccc4)cc3)CC2)nc(N2CCCC2)n1`, in data set [1], the EC50 came out at 58 nM.

For `Cc1cc(N2CCN(C(=O)c3ccccc3)CC2)nc(N2CCCC2)n1`, the EC50 in data set [1] amounted to 72 nM.
